Measured values from patent US6673770B1, “Peptides for the treatment, prophylaxis, diagnosis and monitoring of autoimmune diseases” (Upither B.V., priority 1998, dated 2004).
Like-named read-outs stand apart in the source and are kept apart here. Ends that are not written are not given here. Peptide text beside a SMILES is read from it.

T1: DRB1*0401 molecules, detergent solubilised (human), P01903
T1 chain 1: not shown
T1 chain 2: not shown

B1: (Pro)collagen α1(III): … (peptide)
peptide: MTSLKSVNGQIESLI
modifications: not checked
B2: Chondroitin sulf.(1): … (peptide)
peptide: QLLGVSASVPVEHRD
modifications: not checked
B3: Versican: … (peptide)
peptide: TTTVSSFSLNVEYAI
modifications: not checked
B4: Perlecan: … (peptide)
peptide: SYRLRSPVISIDPPS
modifications: not checked
B5: Aggrecan (1): … (peptide)
peptide: EDLVGSASGDLDLGK
modifications: not checked
B6: MMP-3 (2): … (peptide)
peptide: FFYFFTGSSQLEFDP
modifications: not checked
B7: Phospholipase A2: … (peptide)
peptide: LGGSGTPVDELDKCC
modifications: not fully specified; cysteine pairing not given here
B8: MMP-10: … (peptide)
peptide: SAFWPSLPSYLDAAY
modifications: not checked
B9: Fibronectin: … (peptide)
peptide: QPLVQTAVTNIDRPK
modifications: not checked
B10: Chondroitin sulf.(4): … (peptide)
peptide: QGTIDTAVLHLDTNL
modifications: not checked
B11: MMP-3 (1): … (peptide)
peptide: SSFWPSLPSGVDAAY
modifications: not checked

Key:
DRB1*0401 = DRB1*0401 (Homo sapiens, UniProt P01903+P01911, A100K/A169T/F76Y/I96L/K127E/L162R/M171V/N62H/P40V/Q125Y/R42H/S133A/S149N/S66Y/V115G/V209L/W38E); test: MHC-peptide competition binding assay on isolated DRB1*0401 molecules
Experimental: T-cell responses to the selected peptides in patients are analysed by studying T-cell proliferation of peripheral blood lymphocytes (PBL) and synovial fluid derived cells. […] In these human studies the peptides are tested as 15-mers containing the 9-mer sequence of Table 2 as core sequence. […] The MHC binding affinity of the selected peptides is analysed for the most-common MHC class II-arthritis associations. […] The peptide binding affinity is tested in a MHC-peptide competition assay on isolated MHC molecules in the presence of a labelled marker peptide.
# MHC-peptide binding was measured as described in Wauben et al., Int. Immunol. […] Peptide binding is expressed as tire IC50.

T cell clone A2b = test: Recognition by A2b T-cell clone: proliferation and/or activation marker expression; assay type: cell-based, Lewis rats; details: positive: proliferation more than 2 times background in 2 of 4 experiments and/or activation marker upregulation in 2 of 3 experiments
Experimental: As an immediate read-out for mimicry peptides T-cell activation is measured by proliferation, TcR downregulation, expression of activation markers, and cytokines responses of clone A2b. In addition A2b-like T cells from arthritic rats are isolated, and activation of such cells is measured by, proliferation, TcR downregulation, expression of activation markers, and cytokines responses. Furthermore, T-cell lines are generated after immunisation with MT/IFA or selected peptides/DDA. The cross-reactive nature of the peptide specific T-cell responses is analysed in vitro by determining the recognition of both the self peptide as well as the mycobacterial hsp65 178-186 peptide. After testing the panel of n=65 peptides for induction of proliferation of T cell clone A2b, and/or induction of expression of activation markers, n=20 peptides (SEQ ID NOs: 15, 19, 20, 21, 22, 23, 24, 26, 30, 31, 32, 33, 35, 49, 51, 61, 63, 65, 67, 69) were considered positive. Criteria for positivity were that in 2 out of 4 experiments the induced proliferation was more than 2 times background proliferation as measured by ^3H-thymidine incorporation, and/or that in 2 out of 3 experiments upregulation of an activation marker was detectable by FACS analysis.

[1] = system: T cells from inguinal and popliteal lymph nodes and spleen; test: T-cell recognition (proliferation) during adjuvant arthritis time course; assay type: cell-based, Lewis rats; details: positive: proliferation more than 1.5 times background in more than 25% of organs; days 14, 19, 21, 32, 39
[2] = target: T1, DRB1*0401 molecules, detergent …; test: competition assay on detergent solubilised DRB1*0401 (1 µM) with biotinylated HA-marker peptide (100 nM)
[3] = DRB1*0401 1 μM, biotinylated HA-marker peptide 100 nM, peptide 0-256 μM, read-out: DRB1*0401 binding (IC50)

Molecule | Recognition by T cell clone A2b (T cell clone A2b) | T-cell recognition during adjuvant arthritis [1] | also measured
CC(C)C[C@H](NC(=O)[C@H](CCC(=O)O)NC(=O)[C@H](CC(=O)O)NC(=O)[C@@H](NC(=O)[C@@H]1CCCN1C(=O)[C@@H](NC(=O)CNC(=O)[C@H](CO)NC(=O)CNC(=O)CNC(=O)[C@@H](N)CC(C)C)[C@@H](C)O)C(C)C)C(=O)N[C@@H](CC(=O)O)C(=O)N[C@@H](CCCCN)C(=O)N[C@@H](CS)C(=O)N[C@@H](CS)C(=O)O [SEQ ID NO: 79, LGGSGTPVDELDKCC] (H-LGGSGTPVDELDKCC-OH) | – | – | IC50 (DRB1*0401; [3]): 128 to 256 µM
EDLVGSASGDLDLGK [SEQ ID NO: 75, EDLVGSASGDLDLGK] | – | – | IC50 (DRB1*0401; [3]): 32 to 64 µM
FFSGSSQLE (listed as Rattus sp.) [SEQ ID NO: 49] | positive | positive | –
GHSPPDDVD (listed as Homo sapiens) [SEQ ID NO: 51] | positive | positive | –
GVSASVPVE (listed as Rattus sp.) [SEQ ID NO: 30] | positive | positive | –
IDTAVLHLD (listed as Rattus sp.) [SEQ ID NO: 33] | positive | positive | –
IPTVNENLE (listed as Rattus sp.) [SEQ ID NO: 35] | positive | positive | –
ISSFCTVVD (listed as Rattus sp.) [SEQ ID NO: 61] | positive | – | –
LGSGSTRLE (listed as Homo sapiens) [SEQ ID NO: 40] | – | positive | –
LKSLSSQIE (listed as Homo sapiens) [SEQ ID NO: 19] | positive | – | –
LPSGGDDLE (listed as Rattus sp.) [SEQ ID NO: 22] | positive | positive | –
LPSGGESLE (listed as Rattus sp.) [SEQ ID NO: 21] | positive | positive | –
LRSINQGLD (listed as Rattus sp.) [SEQ ID NO: 67] | positive | – | –
LRSPVISID (listed as Homo sapiens) [SEQ ID NO: 23] | positive | positive | –
LRSPVISIE (listed as Mus musculus) [SEQ ID NO: 24] | positive | positive | –
MTSLKSVNGQIESLI [SEQ ID NO: 78, MTSLKSVNGQIESLI] | – | – | IC50 (DRB1*0401; [3]): 64 to 128 µM
NISLVGCIE (listed as Rattus sp.) [SEQ ID NO: 32] | positive | – | –
PDSAPGEIE (listed as Rattus sp.) [SEQ ID NO: 31] | positive | positive | –
QGTIDTAVLHLDTNL [SEQ ID NO: 72, QGTIDTAVLHLDTNL] | – | – | IC50 (DRB1*0401): 8 to 16 µM
QLLGVSASVPVEHRD [SEQ ID NO: 76, QLLGVSASVPVEHRD] | – | – | IC50 (DRB1*0401; [3]): 32 to 64 µM
QPLVQTAVTNIDRPK [SEQ ID NO: 77, QPLVQTAVTNIDRPK] | – | – | IC50 (DRB1*0401; [3]): 32 to 64 µM

Molecule | Recognition by T cell clone A2b (T cell clone A2b) | T-cell recognition during adjuvant arthritis [1] | also measured
SFSPTCVLE (listed as Homo sapiens) [SEQ ID NO: 38] | – | positive | –
SGSFTTALD (listed as Homo sapiens) [SEQ ID NO: 65] | positive | positive | –
SGTPVDDLD (listed as Rattus sp.) [SEQ ID NO: 63] | positive | positive | –
SHSAVCHLE (listed as Homo sapiens) [SEQ ID NO: 36] | – | positive | –
SHSFPATLE (listed as Homo sapiens) [SEQ ID NO: 47] | – | positive | –
SYRLRSPVISIDPPS [SEQ ID NO: 74, SYRLRSPVISIDPPS] | – | – | IC50 (DRB1*0401; [3]): 16 to 32 µM
TRSGNCYLD (listed as Homo sapiens) [SEQ ID NO: 54] | – | positive | –
TTTVSSFSLNVEYAI [SEQ ID NO: 80, TTTVSSFSLNVEYAI] | – | – | IC50 (DRB1*0401; [3]): 128 to 256 µM
VGSASGALD (listed as Rattus sp.) [SEQ ID NO: 20] | positive | positive | –
VMSFVNMVE (listed as Homo sapiens) [SEQ ID NO: 69] | positive | – | –
B1 | – | – | IC50 [2]: 64 to 128 µM
B2 | – | – | IC50 [2]: 32 to 64 µM
B3 | – | – | IC50 [2]: 128 to 256 µM
B4 | – | – | IC50 [2]: 16 to 32 µM
B5 | – | – | IC50 [2]: 32 to 64 µM
B6 | – | – | IC50 [2]: 8 µM
B7 | – | – | IC50 [2]: 128 to 256 µM
B8 | – | – | IC50 [2]: 8 to 16 µM
B9 | – | – | IC50 [2]: 32 to 64 µM
B10 | – | – | IC50 [2]: 8 to 16 µM
B11 | – | – | IC50 [2]: 16 to 32 µM
